Inconclusive results and toxic doses are left out. How the source made its calls: active means survival T/C of 150% or more; inactive means T/C below 125% in these data.
Test system: CD2F1 mice, L1210 leukemia ip, survival T/C
Assay: NCI In Vivo Anticancer Drug Screen. Data for tumor model L1210 Leukemia (intraperitoneal) in CD2F1 (CDF1) mice
Settings: higher = longer survival
How it was run: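 Mice carrying a transplanted tumor received test compound or vehicle alone. The value is the measurement in the treated group divided by that in the vehicle-treated control group.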

[1] = endpoint: mean survival time, dose: 25.0 mg/kg/injection, schedule: Q04DX002 (ip), vehicle: saline with Tween-80
[2] = endpoint: mean survival time, dose: 50.0 mg/kg/injection, schedule: Q04DX002 (ip), vehicle: saline with Tween-80
[3] = endpoint: mean survival time, dose: 100.0 mg/kg/injection, schedule: Q04DX002 (ip), vehicle: saline with Tween-80
[4] = endpoint: mean survival time, dose: 100.0 mg/kg/injection, schedule: Q04DX003 (ip), vehicle: saline
[5] = endpoint: mean survival time, dose: 200.0 mg/kg/injection, schedule: Q04DX003 (ip), vehicle: saline
[6] = endpoint: mean survival time, dose: 100.0 mg/kg/injection, schedule: Q04DX003 (ip), vehicle: saline with Tween-80
[7] = endpoint: mean survival time, dose: 200.0 mg/kg/injection, schedule: Q04DX003 (ip), vehicle: saline with Tween-80
[8] = endpoint: mean survival time, dose: 400.0 mg/kg/injection, schedule: Q04DX003 (ip), vehicle: saline with Tween-80
[9] = endpoint: mean survival time, dose: 7.5 mg/kg/injection, schedule: Q04DX003 (ip), vehicle: saline
[10] = endpoint: mean survival time, dose: 15.0 mg/kg/injection, schedule: Q04DX003 (ip), vehicle: saline
[11] = endpoint: mean survival time, dose: 30.0 mg/kg/injection, schedule: Q04DX003 (ip), vehicle: saline
[12] = endpoint: mean survival time, dose: 75.0 mg/kg/injection, schedule: Q01DX001 (ip), vehicle: saline

Measured: T/C

C[P+](CP(=O)(c1ccccc1)c1ccccc1)(c1ccccc1)c1ccccc1
inactive: [1] 107 % of control | [2] 92 % of control | [3] 96 % of control

CC1CC1C(=O)O (stereo unspecified)
inactive: [4] 102 % of control | [5] 102 % of control

O=CC(O)C(Cl)C(Cl)C(O)CCl (stereo unspecified)
inactive: [4] 115 % of control | [5] 100 % of control | endpoint: mean survival time, dose: 400.0 mg/kg/injection, schedule: Q04DX003 (ip), vehicle: saline 98 % of control

N#CCCSc1ccccc1
inactive: [6] 90 % of control | [7] 102 % of control | [8] 96 % of control

Nc1ncc(C2OC(CO)C(O)C2O)c(N)n1 (stereo unspecified)
inactive: endpoint: mean survival time, dose: 25.0 mg/kg/injection, schedule: Q01DX009 (ip), vehicle: water 91 % of control | endpoint: mean survival time, dose: 50.0 mg/kg/injection, schedule: Q01DX009 (ip), vehicle: water 100 % of control | endpoint: mean survival time, dose: 100.0 mg/kg/injection, schedule: Q01DX009 (ip), vehicle: water 95 % of control | endpoint: mean survival time, dose: 200.0 mg/kg/injection, schedule: Q01DX009 (ip), vehicle: water 88 % of control | endpoint: mean survival time, dose: 400.0 mg/kg/injection, schedule: Q01DX009 (ip), vehicle: water 91 % of control

Cc1c(C#N)sc2ccccc12
inactive: endpoint: mean survival time, dose: 50.0 mg/kg/injection, schedule: Q01DX009 (ip), vehicle: other 112 % of control | endpoint: mean survival time, dose: 100.0 mg/kg/injection, schedule: Q01DX009 (ip), vehicle: other 95 % of control | endpoint: mean survival time, dose: 100.0 mg/kg/injection, schedule: Q04DX003 (ip), vehicle: other 109 % of control | endpoint: mean survival time, dose: 200.0 mg/kg/injection, schedule: Q04DX003 (ip), vehicle: other 92 % of control

CCOc1ccc(-n2c(O)c(N=Nc3ccccc3)c(=O)n(-c3ccc(OC)cc3)c2=S)cc1
inactive: endpoint: mean survival time, dose: 100.0 mg/kg/injection, schedule: Q01DX001 (ip), vehicle: saline with Tween-80 101 % of control | endpoint: mean survival time, dose: 200.0 mg/kg/injection, schedule: Q01DX001 (ip), vehicle: saline with Tween-80 92 % of control | endpoint: mean survival time, dose: 400.0 mg/kg/injection, schedule: Q01DX001 (ip), vehicle: saline with Tween-80 90 % of control

C1=N/C=C\C=C/c2ccc[n+](CCCCC[n+]3ccccc3-c3ccccn3)c21
inactive: endpoint: mean survival time, dose: 7.5 mg/kg/injection, schedule: Q01DX001 (ip), vehicle: saline 98 % of control | [9] 108 % of control | endpoint: mean survival time, dose: 15.0 mg/kg/injection, schedule: Q01DX001 (ip), vehicle: saline 98 % of control | [10] 100 % of control | endpoint: mean survival time, dose: 30.0 mg/kg/injection, schedule: Q01DX001 (ip), vehicle: saline 98 % of control | [11] 102 % of control

CCOC(=O)C1(C(=O)OCC)C(C)CC2Nc3cc4c(cc3C(=O)N21)OCO4 (stereo unspecified)
inactive: endpoint: mean survival time, dose: 100.0 mg/kg/injection, schedule: Q01DX001 (ip), vehicle: Klucel (hydroxypropylcellulose) (HPC) 92 % of control | endpoint: mean survival time, dose: 200.0 mg/kg/injection, schedule: Q01DX001 (ip), vehicle: Klucel (hydroxypropylcellulose) (HPC) 96 % of control | endpoint: mean survival time, dose: 400.0 mg/kg/injection, schedule: Q01DX001 (ip), vehicle: Klucel (hydroxypropylcellulose) (HPC) 96 % of control

CN=C(N)N/N=C/c1ccccc1
inactive: [9] 95 % of control | [10] 97 % of control | [11] 112 % of control

CC(Br)C(=O)NC(C)C(=O)O (stereo unspecified)
inactive: [6] 92 % of control | [7] 108 % of control | [8] 121 % of control

COC(=O)c1cccc(N=NN(C)C)c1
inactive: endpoint: mean survival time, dose: 23.0 mg/kg/injection, schedule: Q01DX009 (ip), vehicle: Klucel (hydroxypropylcellulose) (HPC) 108 % of control | endpoint: mean survival time, dose: 39.0 mg/kg/injection, schedule: Q01DX009 (ip), vehicle: Klucel (hydroxypropylcellulose) (HPC) 98 % of control | endpoint: mean survival time, dose: 65.0 mg/kg/injection, schedule: Q01DX009 (ip), vehicle: Klucel (hydroxypropylcellulose) (HPC) 97 % of control | endpoint: mean survival time, dose: 108.0 mg/kg/injection, schedule: Q01DX009 (ip), vehicle: Klucel (hydroxypropylcellulose) (HPC) 104 % of control

CC(=O)ON1C(=O)C=CC1=O
inactive: endpoint: mean survival time, dose: 25.0 mg/kg/injection, schedule: Q01DX009 (ip), vehicle: Klucel (hydroxypropylcellulose) (HPC) 95 % of control | endpoint: mean survival time, dose: 50.0 mg/kg/injection, schedule: Q01DX009 (ip), vehicle: Klucel (hydroxypropylcellulose) (HPC) 90 % of control

CCCCC(CC)CNCCOC(=O)c1ccc([N+](=O)[O-])cc1 (stereo unspecified)
inactive: [12] 97 % of control | endpoint: mean survival time, dose: 150.0 mg/kg/injection, schedule: Q01DX001 (ip), vehicle: saline 100 % of control | endpoint: mean survival time, dose: 300.0 mg/kg/injection, schedule: Q01DX001 (ip), vehicle: saline 102 % of control

Cc1nc(-c2ccc(N=Cc3ccc(N(CCOS(C)(=O)=O)CCOS(C)(=O)=O)cc3C)cc2)c(C)s1
inactive: endpoint: mean survival time, dose: 5.0 mg/kg/injection, schedule: Q01DX001 (ip), vehicle: Klucel (hydroxypropylcellulose) (HPC) 101 % of control | endpoint: mean survival time, dose: 10.0 mg/kg/injection, schedule: Q01DX001 (ip), vehicle: Klucel (hydroxypropylcellulose) (HPC) 104 % of control | endpoint: mean survival time, dose: 20.0 mg/kg/injection, schedule: Q01DX001 (ip), vehicle: Klucel (hydroxypropylcellulose) (HPC) 104 % of control | endpoint: mean survival time, dose: 40.0 mg/kg/injection, schedule: Q01DX001 (ip), vehicle: Klucel (hydroxypropylcellulose) (HPC) 115 % of control

CNC(=O)Cc1ccc2cc(OC)c(OC)cc2c1
inactive: endpoint: mean survival time, dose: 100.0 mg/kg/injection, schedule: Q01DX009 (ip), vehicle: saline with Tween-80 100 % of control | endpoint: mean survival time, dose: 200.0 mg/kg/injection, schedule: Q01DX009 (ip), vehicle: saline with Tween-80 102 % of control

O
inactive: [12] 96 % of control | endpoint: mean survival time, dose: 100.0 mg/kg/injection, schedule: Q01DX009 (ip), vehicle: saline 88 % of control | endpoint: mean survival time, dose: 200.0 mg/kg/injection, schedule: Q01DX009 (ip), vehicle: saline 100 % of control | endpoint: mean survival time, dose: 400.0 mg/kg/injection, schedule: Q01DX009 (ip), vehicle: saline 96 % of control

CCN(CC)C(=O)CSC#N
inactive: endpoint: mean survival time, dose: 12.5 mg/kg/injection, schedule: Q01DX001 (ip), vehicle: Klucel (hydroxypropylcellulose) (HPC) 96 % of control | endpoint: mean survival time, dose: 25.0 mg/kg/injection, schedule: Q01DX001 (ip), vehicle: Klucel (hydroxypropylcellulose) (HPC) 100 % of control

Nc1nc(-c2ccccc2)c(Br)c(=O)[nH]1
inactive: [6] 104 % of control | [7] 96 % of control | [8] 93 % of control

[NH-]CC[NH-].[NH-]CC[NH-].[NH-]CC[NH-].[Ni+2].[O-][Cl+3]([O-])([O-])O
inactive: [1] 117 % of control | [2] 92 % of control

NC(=S)N/N=C\c1nccc2c(C(F)(F)C(F)(F)C(F)(F)F)cccc12
inactive: [3] 93 % of control | endpoint: mean survival time, dose: 200.0 mg/kg/injection, schedule: Q04DX002 (ip), vehicle: saline with Tween-80 96 % of control | endpoint: mean survival time, dose: 400.0 mg/kg/injection, schedule: Q04DX002 (ip), vehicle: saline with Tween-80 96 % of control

CCN(C)c1cc2c3c(c1)CCCN3CCC2
inactive: endpoint: mean survival time, dose: 1.25 mg/kg/injection, schedule: Q01DX009 (ip), vehicle: saline 103 % of control | endpoint: mean survival time, dose: 2.5 mg/kg/injection, schedule: Q01DX009 (ip), vehicle: saline 104 % of control | endpoint: mean survival time, dose: 5.0 mg/kg/injection, schedule: Q01DX001 (ip), vehicle: saline 100 % of control | endpoint: mean survival time, dose: 5.0 mg/kg/injection, schedule: Q01DX009 (ip), vehicle: saline 98 % of control | endpoint: mean survival time, dose: 10.0 mg/kg/injection, schedule: Q01DX001 (ip), vehicle: saline 101 % of control | endpoint: mean survival time, dose: 20.0 mg/kg/injection, schedule: Q01DX001 (ip), vehicle: saline 102 % of control

N#[N+]c1c([O-])[nH]c2ccccc12
inactive: endpoint: median survival time, dose: 50.0 mg/kg/injection, schedule: Q04DX002 (ip), vehicle: saline with Tween-80 110 % of control | endpoint: median survival time, dose: 100.0 mg/kg/injection, schedule: Q04DX002 (ip), vehicle: saline with Tween-80 110 % of control | endpoint: median survival time, dose: 200.0 mg/kg/injection, schedule: Q04DX002 (ip), vehicle: saline with Tween-80 120 % of control

Source: PubChem BioAssay AID256 (DTP/NCI, 2004)
